Patent US11834566B2, “High-carbon recovered paper and plastic materials with reduced endotoxin levels” (Continuus Materials Intellectual Property, LLC, priority 2020, dated 2023)

Test: Water-soluble endotoxin in aqueous extract of recovered paper/plastic fragments, L.A.L. kinetic chromogenic method
Settings: Example 13, about 2,000 ppm glutaraldehyde on fragments
Description: Sample #7 from Example 1 was assayed for water-soluble endotoxins. Specifically, a clean, new 500 mL plastic bottle (500 mL capacity) was charged with recovered paper/plastic fragments (20 g, from sample #7 in Example 1) and sterile, cell-culture grade water (200 g). The bottle was immediately capped tightly and agitated in a Gilson shaker for a period of 60 s. The loaded bottle was then conditioned for 1 h at a temperature of 65-70° F. and was then subjected to agitation in the Gilson shaker for a second period of 60 s. The bottle was then opened and a sample of liquor extract (15 mL) was decanted into a sterile sample vial, which was immediately capped and labeled. Collected extract underwent endotoxin analysis using the L.A.L. kinetic chromogenic method.
Recovered paper/plastic sample batches (500 g, as-is basis, #7 sample from Example 1) were loaded into a plastic bin (16.125″×11.25″×6.75″) and were then sprayed with aqueous glutaraldehyde solutions at various target levels. In this process, the loaded bin was weighed initially and was then re-weighed repeatedly during the application of the glutaraldehyde solution until the target application level was achieved. The bin was repeatedly closed and shaken during this process in order to obtain a uniform distribution of the glutaraldehyde on the fragments. […]

Q: For `O=CCCCC=O` [glutaraldehyde], which “water-soluble endotoxin crosslinked and converted to water-insoluble material” value is on record?
A: Its value is “about 99.9%”.
